According to US20050027003A1, “Methods of therapeutic treatment using retinoids with reduced side effects” (Allergan, Inc., priority 2003, published 2005):

Tests used:
Type in all cases: in vivo, human
[1] = Example 8: PK and PD interactions of oral tazarotene and oral contraceptives; details: up to 6 mg once daily
Procedure: It is the objective of this study to determine if there are pharmacokinetic (PK) and pharmacodynamic (PD) interactions between tazarotene and commonly prescribed oral contraceptives (OCs) when coadministered together.
Three separate clinical studies are conducted to evaluate the PK and PD interactions of oral tazarotene and OCs in healthy volunteers. Two studies evaluate daily doses of norethindrone (NE)/ethinyl estradiol (EE) with daily doses of tazarotene 1.1 mg (N=27) and 6 mg (N=29). The third study assesses the daily doses of norgestimate (NGM)/EE with daily doses of tazarotene 6 mg (N=26). OCs are administered for three consecutive menstrual cycles. Daily doses of tazarotene are started during the 2nd cycle and continued through the end of the studies. PK parameters for EE, NE, and NGM (AUC0-24 and Cmax) are determined before tazarotene dosing and after tazarotene dosing on day 6 of the 2nd and 3rd cycles. Serum concentrations of luteinizing hormone (LH) and follicle-stimulating hormone (FSH)-markers of contraceptive efficacy are also evaluated before tazarotene dosing and after tazarotene dosing on days 2, 4, and 6 of the 2nd and 3rd cycles. Serum progesterone levels are assessed on days 18 and 20 of the 2nd and 3rd cycles. […]

[2] = tested on: patients with moderate to very severe plaque psoriasis; experiment: Example 4: open-label extension study of oral tazarotene in plaque psoriasis; details: 4.5 mg once daily, 12 weeks, across both groups
[3] = tested on: patients; experiment: Example 3: two placebo-controlled 24-week safety studies plus dose-response evaluations of oral tazarotene; details: for incidence of patients discontinuing due to adverse effects: placebo 3%
Procedure: Two multicenter, double-blind, randomized, placebo-controlled 24-week studies of identical design are conducted to evaluate the safety of oral tazarotene. In addition, 16- to 24-week dose-response evaluations are performed.
In the two safety trials, the incidence of adverse side effects with a 4.5 mg dose administered orally once daily is compared to the incidence of the same side effects with a placebo. […] The majority of these were mild in severity and typical of adverse effects associated with oral retinoids.

[4] = tested on: patient with severe psoriasis; experiment: Example 9: patient with severe psoriasis taking Ortho-Novum, tazarotene 6 mg per day; details: after 30 days
From the text: The patient presents symptoms of severe psoriasis. The symptoms include lesions approximately 4 to 10 centimeters across appearing as raised patches of wine red skin many of which are covered in silvery white scales. The lesions are mostly dry and rough, and quite often noticeably warm to the touch. The lesions are present on the elbows, knees, scalp, and groin area. The patient experiences intense burning and itching associated with the lesions.
The patient is currently taking Ortho-Novum® for contraception.
Tazarotene at a dose of 6 mg per day is prescribed.

[5] = tested on: patients with moderate to very severe plaque psoriasis; experiment: Example 4: open-label extension study of oral tazarotene in plaque psoriasis; details: 4.5 mg once daily
Procedure: Two multicenter, double-blind, placebo-controlled studies ware conducted to evaluate the efficacy and safety of oral tazarotene (4.5 mg once daily) in patients with moderate to very severe plaque psoriasis. […] Efficacy evaluations include overall lesional assessment (OLA), percent body surface area involvement, global response to treatment, plaque elevation, scaling, and erythema. OLA is graded on a 6-point scale (0=none, 1=minimal, 2=mild, 3=moderate, 4=severe, 5=very severe).

[6] = tested on: patients with psoriasis; experiment: Example 2: Phase 3 studies of oral tazarotene for psoriasis, adverse events (Table 1); details: Taz 4.5 mg
Procedure: A series of Phase 3 studies are conducted on orally administered tazarotene for the treatment of psoriasis. Adverse events (side effects) are monitored. In addition, published data for acitretin's side effects are also considered.

[7] = tested on: patients with acne; experiment: Example 6: studies of oral tazarotene for acne, adverse events (Table 2); details: combined data from Studies 1 and 2 (N = 223)
Procedure: Studies are conducted on orally administered tazarotene for the treatment of acne. Adverse events (side effects) are monitored.

[8] = Study 3, treated with Tazarotene for 3 months (N = 220)
[9] = Study 3, treated with Tazarotene for 6 months (N = 92)
[10] = combined data from Studies 1 and 2 (N = 348)

SMILES: CCOC(=O)c1ccc(C#Cc2ccc3c(c2)C(C)(C)CCS3)nc1 [tazarotene]
- effect on PK or efficacy of NE/EE and NGM/EE oral contraceptives [1]: does not affect
- incidence of dry skin [2]: 25%
- incidence of headache [2]: 11%
- incidence of infection [2]: 10%
- incidence of patients discontinuing due to adverse effects ([3]; 4.5 mg (n=348)): 3%
- incidence of hypertriglyceridemia, hypercholesterolemia, abnormal liver function tests, increased alanine aminotransferase, increased aspartate aminotransferase, desquamation, eye dryness, alopecia ([3]; 4.5 mg orally once daily vs placebo): essentially the same incidence
- incidence of patients discontinuing due to adverse effects ([3]; 6.3 mg (n=16)): 13%
- incidence of patients discontinuing due to adverse effects ([3]; 0.4 to 1.1 mg (n=105)): approximately 2%
- incidence of patients discontinuing due to adverse effects ([3]; 2.1 to 2.8 mg (n=21)): 10%
- incidence of patients discontinuing due to adverse effects ([3]; (n=14)): 0%
- severity of lesions [4]: substantially lessened
- symptoms of itching and burning [4]: relieved
- changes in liver function test values or cholesterol levels [5]: no clinically significant changes
- serious adverse events considered related to the study treatment [5]: no serious adverse events
- incidence of arthralgia ([5]; 12 weeks, across both groups): 20%
- incidence of asthenia ([5]; 12 weeks, across both groups): 6%
- incidence of back pain ([5]; 12 weeks, across both groups): 11%
- incidence of cheilitis ([5]; 12 weeks, across both groups): 70%
- incidence of hypertriglyceridemia ([5]; 12 weeks, across both groups): 6%
- incidence of myalgia ([5]; 12 weeks, across both groups): 15%
- Adverse event: Alopecia [6, 8]: 1 (0.5) number (%) of patients
- Adverse event: Arthralgia [6, 8]: 28 (12.7) number (%) of patients
- Adverse event: Atrophy of skin [6, 8]: 0 (0.0) number (%) of patients
- Adverse event: Back pain [6, 8]: 7 (3.2) number (%) of patients
- Adverse event: Cheilitis [6, 8]: 149 (67.7) number (%) of patients
- Adverse event: Dry Skin [6, 8]: 47 (21.4) number (%) of patients
- Adverse event: Dry mouth/Oral dryness [6, 8]: 11 (5.0) number (%) of patients
- Adverse event: Epistaxis [6, 8]: 1 (0.5) number (%) of patients
- Adverse event: Erythematous rash/Erythema [6, 8]: 0 (0.0) number (%) of patients
- Adverse event: Hyperesthesia [6, 8]: 0 (0.0) number (%) of patients
- Adverse event: Nail Disorder [6, 8]: 1 (0.5) number (%) of patients
- Adverse event: Paresthesia [6, 8]: 3 (1.4) number (%) of patients
- Adverse event: Paronychia/Nail disorder [6, 8]: 1 (0.5) number (%) of patients
- Adverse event: Pruritus [6, 8]: 11 (5.0) number (%) of patients
- Adverse event: Rhinitis [6, 8]: 0 (0.0) number (%) of patients
- Adverse event: Rigors/Chills [6, 8]: 1 (0.5) number (%) of patients
- Adverse event: Skin peeling/Desquamation [6, 8]: 3 (1.4) number (%) of patients
- Adverse event: Sticky skin/Skin disorder [6, 8]: 0 (0.0) number (%) of patients
- Adverse event: Xerophthalmia/Eye disorder [6, 8]: 3 (1.4) number (%) of patients
- Adverse event: Alopecia [6, 9]: 5 (5.4) number (%) of patients
- Adverse event: Arthralgia [6, 9]: 30 (32.6) number (%) of patients
- Adverse event: Atrophy of skin [6, 9]: 0 (0.0) number (%) of patients
- Adverse event: Back pain [6, 9]: 10 (10.9) number (%) of patients
- Adverse event: Cheilitis [6, 9]: 65 (70.7) number (%) of patients
- Adverse event: Dry Skin [6, 9]: 24 (26.1) number (%) of patients
- Adverse event: Dry mouth/Oral dryness [6, 9]: 2 (2.2) number (%) of patients
- Adverse event: Epistaxis [6, 9]: 0 (0.0) number (%) of patients
- Adverse event: Erythematous rash/Erythema [6, 9]: 0 (0.0) number (%) of patients
- Adverse event: Hyperesthesia [6, 9]: 0 (0.0) number (%) of patients
- Adverse event: Nail Disorder [6, 9]: 1 (1.1) number (%) of patients
- Adverse event: Paresthesia [6, 9]: 1 (1.1) number (%) of patients
- Adverse event: Paronychia/Nail disorder [6, 9]: 1 (1.1) number (%) of patients
- Adverse event: Pruritus [6, 9]: 3 (3.3) number (%) of patients
- Adverse event: Rhinitis [6, 9]: 0 (0.0) number (%) of patients
- Adverse event: Rigors/Chills [6, 9]: 1 (1.1) number (%) of patients
- Adverse event: Skin peeling/Desquamation [6, 9]: 1 (1.1) number (%) of patients
- Adverse event: Sticky skin/Skin disorder [6, 9]: 0 (0.0) number (%) of patients
- Adverse event: Xerophthalmia/Eye disorder [6, 9]: 1 (1.1) number (%) of patients
- Adverse event: Alopecia [6, 10]: 1 (0.3) number (%) of patients
- Adverse event: Arthralgia [6, 10]: 60 (17.2) number (%) of patients
- Adverse event: Atrophy of skin [6, 10]: 0 (0.0) number (%) of patients
- Adverse event: Back pain [6, 10]: 16 (4.6) number (%) of patients
- Adverse event: Cheilitis [6, 10]: 228 (65.5) number (%) of patients
- Adverse event: Dry Skin [6, 10]: 82 (23.6) number (%) of patients
- Adverse event: Dry mouth/Oral dryness [6, 10]: 11 (3.2) number (%) of patients
- Adverse event: Epistaxis [6, 10]: 2 (0.6) number (%) of patients
- Adverse event: Erythematous rash/Erythema [6, 10]: 2 (0.6) number (%) of patients
- Adverse event: Hyperesthesia [6, 10]: 0 (0.0) number (%) of patients
- Adverse event: Nail Disorder [6, 10]: 2 (0.6) number (%) of patients
- Adverse event: Paresthesia [6, 10]: 7 (2.0) number (%) of patients
- Adverse event: Paronychia/Nail disorder [6, 10]: 2 (0.6) number (%) of patients
- Adverse event: Pruritus [6, 10]: 21 (6.0) number (%) of patients
- Adverse event: Rhinitis [6, 10]: 8 (2.3) number (%) of patients
- Adverse event: Rigors/Chills [6, 10]: 9 (2.6) number (%) of patients
- Adverse event: Skin peeling/Desquamation [6, 10]: 3 (0.9) number (%) of patients
- Adverse event: Sticky skin/Skin disorder [6, 10]: 1 (0.3) number (%) of patients
- Adverse event: Xerophthalmia/Eye disorder [6, 10]: 8 (2.3) number (%) of patients
- Adverse event: Cheilitis [7]: 134 (60.1) number (%) of patients
- Adverse event: Conjunctivitis [7]: 0 (0.0) number (%) of patients
- Adverse event: Desquamation central face/Desquamation [7]: 1 (0.4) number (%) of patients
- Adverse event: Dry Skin [7]: 79 (35.4) number (%) of patients
- Adverse event: Dry nose [7]: 7 (3.1) number (%) of patients
- Adverse event: Epistaxis [7]: 6 (2.7) number (%) of patients
- Adverse event: Fingertip peeling/Desquamation [7]: 1 (0.4) number (%) of patients
- Adverse event: Headache [7]: 26 (11.7) number (%) of patients
- Adverse event: Irritation of eyes [7]: 0 (0.0) number (%) of patients
- Adverse event: Joint pain/Arthralgia [7]: 18 (8.1) number (%) of patients
- Adverse event: Peeling/Desquamation [7]: 1 (0.4) number (%) of patients
- Adverse event: Pruritus [7]: 10 (4.5) number (%) of patients
- Adverse event: Rash-dermatitis/Rash [7]: 7 (3.1) number (%) of patients
- Adverse event: Red Scaly face/Desquamation [7]: 1 (0.4) number (%) of patients
- Adverse event: Skin fragility/Skin disorder [7]: 1 (0.4) number (%) of patients
